Data taken from ChEMBL document CHEMBL1201862, “PubChem BioAssay data set” (2004).
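Following 48 hours of exposure in 96-well plates, responses at five concentrations were used to interpolate endpoints linearly. Abbreviation: GI50, concentration required for 50% inhibition of growth.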 The source made the active and inactive calls. Rule as the data show it: active = GI50 up to about 1.1 µM and inactive = higher. Where a SMILES comes first, the peptide text is derived from it. [ ]: non-standard residue; d: D form. The star is where a group is joined. Bn2Val = CC(C)[C@@H](C(=O)*)N(Cc1ccccc1)Cc1ccccc1; NHPiperonyl = c1cc2c(cc1CN*)OCO2; NMeV = CN[C@H](C(=O)O)C(C)C; dNMeA = CN[C@H](C)C(=O)O

What was measured:
Test in all cases: inhibition of tumour cell growth, NCI panel, 48 h
SF-268 = test system: SF-268
MDA-N = test system: MDA-N
DU-145 = test system: DU-145
NCI-H226 = test system: NCI-H226
COLO 205 = test system: COLO 205
RPMI-8226 = test system: RPMI-8226
OVCAR-4 = test system: OVCAR-4
HL-60 = test system: HL-60
U-251 = test system: U-251
SK-OV-3 = test system: SK-OV-3
TK-10 = test system: TK-10
NCI-H460 = test system: NCI-H460
OVCAR-5 = test system: OVCAR-5
HOP-92 = test system: HOP-92
NCI-H522 = test system: NCI-H522
UACC-257 = test system: UACC-257
M14 = test system: M14
SW-620 = test system: SW-620
MDA-MB-231 = test system: MDA-MB-231
T47D = test system: T47D
HOP-62 = test system: HOP-62
SNB-75 = test system: SNB-75
HCT-116 = test system: HCT-116
SF-539 = test system: SF-539
UO-31 = test system: UO-31
CAKI-1 = test system: CAKI-1
MOLT-4 = test system: MOLT-4
SK-MEL-28 = test system: SK-MEL-28
ACHN = test system: ACHN
K562 = test system: K562
LOX IMVI = test system: LOX IMVI
NCI-H23 = test system: NCI-H23
MDA-MB-435 = test system: MDA-MB-435
OVCAR-8 = test system: OVCAR-8
SK-MEL-2 = test system: SK-MEL-2
HT-29 = test system: HT-29
NCI/ADR-RES = test system: NCI/ADR-RES
MCF7 = test system: MCF7
CCRF-CEM = test system: CCRF-CEM
SNB-19 = test system: SNB-19
IGROV-1 = test system: IGROV-1
OVCAR-3 = test system: OVCAR-3
EKVX = test system: EKVX
HCT-15 = test system: HCT-15
SF-295 = test system: SF-295
KM12 = test system: KM12
SR = test system: SR
UACC-62 = test system: UACC-62
786-0 = test system: 786-0
A549 = test system: A549
SN12C = test system: SN12C
HCC 2998 = test system: HCC 2998
RXF 393 = test system: RXF 393
A498 = test system: A498
PC-3 = test system: PC-3
Malme-3M = test system: Malme-3M
SK-MEL-5 = test system: SK-MEL-5
Hs-578T = test system: Hs-578T
BT-549 = test system: BT-549

CN(C)/C=N\c1cccc2c1NSN2
GI50 (SF-268): > 100 µM (inactive)
GI50 (MDA-N): > 100 µM (inactive)
GI50 (DU-145): > 100 µM (inactive)
GI50 (NCI-H226): > 100 µM (inactive)
GI50 (COLO 205): > 100 µM (inactive)
GI50 (RPMI-8226): > 100 µM (inactive)
GI50 (OVCAR-4): > 100 µM (inactive)
GI50 (HL-60): > 100 µM (inactive)
GI50 (U-251): > 100 µM (inactive)
GI50 (SK-OV-3): > 100 µM (inactive)
GI50 (TK-10): > 100 µM (inactive)
GI50 (NCI-H460): > 100 µM (inactive)
GI50 (OVCAR-5): > 100 µM (inactive)
GI50 (HOP-92): > 100 µM (inactive)
GI50 (NCI-H522): > 100 µM (inactive)
GI50 (UACC-257): > 100 µM (inactive)
GI50 (M14): > 100 µM (inactive)
GI50 (SW-620): > 100 µM (inactive)
GI50 (MDA-MB-231): > 100 µM (inactive)
GI50 (T47D): > 100 µM (inactive)
GI50 (HOP-62): > 100 µM (inactive)
GI50 (SNB-75): > 100 µM (inactive)
GI50 (HCT-116): > 100 µM (inactive)
GI50 (SF-539): > 100 µM (inactive)
GI50 (UO-31): > 100 µM (inactive)
GI50 (CAKI-1): > 100 µM (inactive)
GI50 (MOLT-4): > 100 µM (inactive)
GI50 (SK-MEL-28): > 100 µM (inactive)
GI50 (ACHN): > 100 µM (inactive)
GI50 (K562): > 100 µM (inactive)
GI50 (LOX IMVI): > 100 µM (inactive)
GI50 (NCI-H23): > 100 µM (inactive)
GI50 (MDA-MB-435): > 100 µM (inactive)
GI50 (OVCAR-8): > 100 µM (inactive)
GI50 (SK-MEL-2): > 100 µM (inactive)
GI50 (HT-29): > 100 µM (inactive)
GI50 (NCI/ADR-RES): > 100 µM (inactive)
GI50 (MCF7): > 100 µM (inactive)
GI50 (CCRF-CEM): > 100 µM (inactive)
GI50 (SNB-19): > 100 µM (inactive)
GI50 (IGROV-1): > 100 µM (inactive)
GI50 (OVCAR-3): > 100 µM (inactive)
GI50 (EKVX): > 100 µM (inactive)
GI50 (HCT-15): > 100 µM
GI50 (SF-295): > 100 µM (inactive)
GI50 (KM12): > 100 µM (inactive)
GI50 (SR): > 100 µM (inactive)
GI50 (UACC-62): > 100 µM (inactive)
GI50 (786-0): > 100 µM (inactive)
GI50 (A549): > 100 µM (inactive)
GI50 (SN12C): > 100 µM (inactive)
GI50 (HCC 2998): > 100 µM (inactive)
GI50 (RXF 393): > 100 µM (inactive)
GI50 (A498): > 100 µM (inactive)
GI50 (PC-3): > 100 µM (inactive)
GI50 (Malme-3M): > 100 µM (inactive)
GI50 (SK-MEL-5): > 100 µM (inactive)
GI50 (Hs-578T): > 100 µM (inactive)

CC(C)[C@H](NC(=O)[C@H](C(C)C)N(Cc1ccccc1)Cc1ccccc1)C(=O)N(C)[C@H](C(=O)N1CCC[C@H]1C(=O)N(C)[C@H](C)C(=O)NCc1ccc2c(c1)OCO2)C(C)C (Bn2Val-V[NMeV]P[dNMeA]-NHPiperonyl)
GI50 (SF-268): 17.7 µM (inactive)
GI50 (MDA-N): 12.1 µM (inactive)
GI50 (DU-145): 11.6 µM (inactive)
GI50 (NCI-H226): 16.8 µM (inactive)
GI50 (COLO 205): 2.15 µM (inactive)
GI50 (RPMI-8226): 1.99 µM (inactive)
GI50 (OVCAR-4): 5.85 µM (inactive)
GI50 (HL-60): 1.17 µM (inactive)
GI50 (U-251): 4.33 µM (inactive)
GI50 (SK-OV-3): 41.6 µM (inactive)
GI50 (TK-10): 18.3 µM (inactive)
GI50 (NCI-H460): 3.93 µM (inactive)
GI50 (OVCAR-5): 4.38 µM (inactive)
GI50 (BT-549): 13.2 µM (inactive)
GI50 (NCI-H522): 14.7 µM (inactive)
GI50 (UACC-257): 5.56 µM (inactive)
GI50 (M14): 25.5 µM (inactive)
GI50 (SW-620): 4.49 µM (inactive)
GI50 (MDA-MB-231): 6.56 µM (inactive)
GI50 (HOP-62): 29.9 µM (inactive)
GI50 (HCT-116): 3.48 µM (inactive)
GI50 (SF-539): 3.37 µM (inactive)
GI50 (UO-31): 21.6 µM (inactive)
GI50 (CAKI-1): 19.9 µM (inactive)
GI50 (MOLT-4): 2.73 µM (inactive)
GI50 (SK-MEL-28): 22.4 µM (inactive)
GI50 (ACHN): 8.11 µM (inactive)
GI50 (K562): 2.59 µM (inactive)
GI50 (LOX IMVI): 5.9 µM (inactive)
GI50 (NCI-H23): 16.8 µM (inactive)
GI50 (MDA-MB-435): 17.2 µM (inactive)
GI50 (OVCAR-8): 8.61 µM (inactive)
GI50 (SK-MEL-2): 5.97 µM (inactive)
GI50 (HT-29): 3.03 µM (inactive)
GI50 (NCI/ADR-RES): 2.91 µM (inactive)
GI50 (MCF7): 2.25 µM (inactive)
GI50 (CCRF-CEM): 2.56 µM (inactive)
GI50 (SNB-19): 18.2 µM (inactive)
GI50 (IGROV-1): 3.95 µM (inactive)
GI50 (OVCAR-3): 5.01 µM (inactive)
GI50 (EKVX): 4.98 µM (inactive)
GI50 (HCT-15): 3.54 µM
GI50 (SF-295): 4.94 µM (inactive)
GI50 (KM12): 4.83 µM (inactive)
GI50 (UACC-62): 13 µM (inactive)
GI50 (786-0): 13.6 µM (inactive)
GI50 (A549): 15.6 µM (inactive)
GI50 (HCC 2998): 3.23 µM (inactive)
GI50 (PC-3): 3.35 µM (inactive)
GI50 (Malme-3M): 21.9 µM (inactive)
GI50 (Hs-578T): 39.1 µM (inactive)
